Like-named read-outs stand apart in the source and are kept apart here.
Experiments:
HeLa cells = experiment: Cell viability assessment with resazurin assay (Method A); type: cell-based
Procedure: (§1) The synthesized lipids were tested in term of in vitro transfection efficacy and toxicity on HeLa cells. In order to perform the mentioned biological tests, appropriate LNPs had to be formulated from the synthesized lipids. The formulation technique was different in Method A and B. The particle size, polydispersity index (PDI) and zeta potential of resulting LNPs were determined by means of Dynamic Light Scattering technique (DLS). Prior to biological testing the encapsulation efficiency (EE) of the loaded LNPs was determined by using RiboGreen RNA assay. In case of Method A Luc mRNA while in case of Method B GFP mRNA was transfected into the cells. In parallel with the transfection experiments, toxicity of the investigated LNPs was determined, in case of Method A resazurin assay while in case of Method B MTT assay was used. Additionally, the toxicity of the lipids was investigated on HepG2 cells and IC50 values were determined.
This protocol is used to determine the metabolic activity of cells as a measure for cell viability after exposure to potentially toxic substances. Resazurin is converted in mitochondria by reduction to resorufin, which has a much higher fluorescence at ˜600 nm compared to unconverted resazurin. A lower amount/percentage of conversion is correlated with reduced cellular metabolism and indirectly to cellular death and toxicity. Care must be taken with interpretation of the read-out, as 50% reduction in resazurin conversion may mean 50% reduction of cellular metabolism of 100% alive cells, or 50% of cells dead, and any combination in between.
• 1. Prepare 0.25 mg/ml stock solution resazurin in fresh cell culture medium. Resazurin is auto-reducing over time in solution, especially in medium, and fresh stocks should be prepared every 2-3 days. Stocks should be stored at 4° C. and protected from light. For HeLa cells, DMEM/F12 with 10% FCS is used. • 2. Dilute stock solution 10× in fresh cell culture medium to 0.025 mg/ml->ready for application on cells. For HeLa cells, DMEM/F12 with 10% FCS is used. • 3. Collect 96-well plate and replace cell-culture spent medium with 100 μl per well resazurin solution. Add some resazurin solution for background measurement in wells not containing cells. • 4. Incubate for 50 minutes in incubator at 37° C., 5% CO2, 95% RH. • 5. Transfer resazurin solution to a fresh 96- or 384-well plate. • 6. Measure in plate reader using 540/25 nm (excitation) and 610/40 nm (emission) using standard settings (PTM low/OD-1.0). • 7. Subtract the average background measurement from all samples. Set the average of the negative controls (well receiving OptiMEM only during transfection) to 100% and express all values as percentage of the control activity. Typically, at lower levels of treatment, elevation of metabolic activity is shown, whereas for toxic substances, at toxic concentrations sigmoidal curves can be obtained, with lower activity indicating higher toxicity.

HepG2 cell line = experiment: In vitro toxicity study on HepG2 cell line (resazurin, viability and IC50); type: cell-based, human; details: for IC50: lipid toxicity, HepG2, 48 h post-treatment, 6.25-800 μM, read-out: IC50 value, μM (on HepG2 cell)
Procedure: as §1
HepG2 cell line (human hepatocellular carcinoma) were maintained in DMEM medium supplemented with 10% FBS. Cell toxicity measurements were carried out in 384-well microtiter plates with 1000 cells seeded in each well. Test measurements were carried out in triplicate, and control measurements in quadruplicate. After an overnight incubation, the cells were treated with an increasing concentration of the test compounds (6.25, 12.5, 25, 50, 100, 200, 400, 800 μM). […] 48 h post-treatment, following visual inspection under an inverted microscope, cell viability was measured by resazurin assay. Viability of treated cells was calculated relative to that of ethanol vehicle controls. Concentration response curves (CRCs) were obtained and corresponding IC50 values were calculated where applicable and are shown in Table 9.
Resazurin reagent (Sigma-Aldrich) was dissolved in PBS (pH 7.4) at 0.15 mg/ml concentration, 0.22 μm filtered and aliquoted at −20° C., 10 μl resazurin stock solution was added to wells. After 5 hours incubation at 37° C. under 5% CO2 fluorescence (530 nm excitation/580 nm emission) was recorded on a multimode microplate reader.

[1] = Encapsulation efficiency of loaded LNPs, RiboGreen RNA assay (Method A); type: physicochemical
Procedure: as §1
• 1. Preparation of sample stock solutions: In the top row of the 96-well plate (Row A in the plate), add 297 μL of TE buffer pH 7.4 (see Table 1) to a single well for each sample plus a single well for a PBS blank using a multichannel pipette.
• 2. Add 3 μL of sample (at 0.5 mg/ml) to these wells for a final volume of 300 μL. Add 3 μL of PBS to the blank well. Pipette to mix. This is your stock solution for each sample. The final RNA concentration of these stock solutions should be approximately 4-7 μg/mL. • 3. mRNA-LNP sample setup: • a. Add 50 μL of TE buffer pH 7.5 to the two wells directly below each sample (Rows B and C in the plate). • b. Add 50 μL of sample stock solution from Row A into the wells in Rows B and C (this assay is run in duplicate. All liquid handling should be done using a multichannel pipette). • c. Add 50 μL of Triton buffer to the wells in Rows D and E (in the plate) below each sample. • d. Add 50 μL of sample stock solution from Row A into the wells in Rows D and E. • 4. RiboGreen RNA standard curve setup: Dilute the RNA standard to produce an RNA stock at a final concentration of 20 μg/mL in TE buffer pH 7.4. The final volume should be 150 μL. Set up a standard curve (in duplicate) as using the RNA stock (20 μg/mL siRNA), TE buffer pH 7.5, and Triton X-100 buffer according the Table 2 and Table 3 below.
• 5. Once samples and standard curve are plated, incubate the plate at 37° C. for 10 min to lyse mRNA-LNP in the presence of Triton X-100 buffer. • 6. Meanwhile, prepare RiboGreen Solution: Sum the total number of sample wells and standard curve wells. Add three to this number, and multiply the total by 100. This is the total volume, in μL, of RiboGreen Solution needed for this assay. In a 15 mL RNAse-free Falcon tube, dilute the RiboGreen Reagent 1:100 into TE buffer pH 7.5 to the total volume calculated. • 7. Addition of RiboGreen Solution and sample readings: Remove a 96-well plate from 37° C. incubator; let it cool to room temperature as RiboGreen binding is somewhat temperature dependent. Add 100 μL of RiboGreen Solution to each well. Pop any air bubbles with a needle. Read using fluorescent plate reader (excitation=480, emission=525). • 8. Sample analysis: Use the data generated by the RiboGreen standard curve to calculate the concentration of mRNA. Transfection Efficiency with Luciferase-mRNA (Method A)

[2] = HepG2 cells, 6.25 μM lipid, 48 h post-treatment, resazurin, relative to ethanol vehicle controls
[3] = HepG2 cells, 12.5 μM lipid, 48 h post-treatment, resazurin, relative to ethanol vehicle controls
[4] = HepG2 cells, 25 μM lipid, 48 h post-treatment, resazurin, relative to ethanol vehicle controls
[5] = HepG2 cells, 50 μM lipid, 48 h post-treatment, resazurin, relative to ethanol vehicle controls
[6] = HepG2 cells, 100 μM lipid, 48 h post-treatment, resazurin, relative to ethanol vehicle controls
[7] = HepG2 cells, 200 μM lipid, 48 h post-treatment, resazurin, relative to ethanol vehicle controls
[8] = HepG2 cells, 400 μM lipid, 48 h post-treatment, resazurin, relative to ethanol vehicle controls
[9] = HepG2 cells, 800 μM lipid, 48 h post-treatment, resazurin, relative to ethanol vehicle controls
[10] = encapsulation efficiency of mRNA-loaded LNP, Method A, RiboGreen

Row | Structure (SMILES) | Viability (%) at different lipid concentrations, mean (HepG2 cell line; [2]) [%] | Viability (%) at different lipid concentrations, mean (HepG2 cell line; [3]) [%] | Viability (%) at different lipid concentrations, mean (HepG2 cell line; [4]) [%] | Viability (%) at different lipid concentrations, mean (HepG2 cell line; [5]) [%] | Viability (%) at different lipid concentrations, mean (HepG2 cell line; [6]) [%] | Viability (%) at different lipid concentrations, mean (HepG2 cell line; [7]) [%] | Viability (%) at different lipid concentrations, mean (HepG2 cell line; [8]) [%] | Viability (%) at different lipid concentrations, mean (HepG2 cell line; [9]) [%] | EE (%) [1, 10] [%] | Cell Viability % (Average metabolic rate over all doses, Resazurin) (HeLa cells; human) [%] | IC50 (HepG2 cell line; Homo sapiens, resazurin) [µM] | further results
1 | CCCCCCCCC(CCCCCC)C(=O)OCCCCCCN(CCCCO)CCCCCCOC(=O)C(CCCCCC)CCCCCCCC (stereo not shown) [ALC-0315, reference compound] | 76.8 | 97.4 | 95.4 | 91.6 | 84.2 | 58.9 | 42.9 | 20.9 | 94 |  |  | Cell Viability % (Average metabolic rate over all doses, Resazurin) (HeLa cells): 97%; IC50 (HepG2 cell line; resazurin): 299 µM
2 | CCCCC/C=C\C/C=C\CCCCCCCCOC(CCCCCN(CCO)CCO)O[Si](C)(C)OCCCCCCCC/C=C\C/C=C\CCCCC (stereo not shown) [Example 39, (21Z,24Z)-3-(2-hydroxyethyl)-11,11-dimethyl-9-(((9Z,12Z)-octadeca-9,12-dien-1-yl)oxy)-10,12-dioxa-3-aza-11-silatriaconta-21,24-dien-1-ol] |  |  |  |  |  |  |  |  | 87 | 102 | 667 | Viability (%) at different lipid concentrations, mean (HepG2 cell line; human, 48 h, 6.25 μM): 99.8%; Viability (%) at different lipid concentrations, mean (HepG2 cell line; human, 48 h, 12.5 μM): 97.8%; Viability (%) at different lipid concentrations, mean (HepG2 cell line; human, 48 h, 25 μM): 99.4%; Viability (%) at different lipid concentrations, mean (HepG2 cell line; human, 48 h, 50 μM): 98.6%; Viability (%) at different lipid concentrations, mean (HepG2 cell line; human, 48 h, 100 μM): 100.3%; Viability (%) at different lipid concentrations, mean (HepG2 cell line; human, 48 h, 200 μM): 106.1%; Viability (%) at different lipid concentrations, mean (HepG2 cell line; human, 48 h, 400 μM): 83.4%; Viability (%) at different lipid concentrations, mean (HepG2 cell line; human, 48 h, 800 μM): 35.8%
3 | CCCCC/C=C\C/C=C\CCCCCCCCO[Si](C)(C)OC(CCCCCCC/C=C\C/C=C\CCCCC)OCCCCCCN(CCO)CCO (stereo not shown) [Example 40, (23Z,26Z)-11-((8Z,11Z)-heptadeca-8,11-dien-1-yl)-3-(2-hydroxyethyl)-13,13-dimethyl-10,12,14-trioxa-3-aza-13-siladotriaconta-23,26-dien-1-ol] | 100.8 | 97.6 | 98.9 | 101.8 | 109.7 | 115.3 | 102.0 | 89.0 | 87 | 100 | > 800 | 
4 | CCCCCCCC/C=C\CCCCCCCCOC(CCCCCCCCCCCCCCC)O[Si](C)(C)OCCCCCCN(CCO)CCO (stereo not shown) [Example 41, (Z)-3-(2-hydroxyethyl)-11,11-dimethyl-13-pentadecyl-10,12,14-trioxa-3-aza-11-siladotriacont-23-en-1-ol] | 99.0 | 97.6 | 102.6 | 111.2 | 113.2 | 109.5 | 91.5 | 90.7 | 78 | 98 | > 800 | 
5 | CCCCC/C=C\C/C=C\CCCCCCCCOC(CCCCCCC/C=C\C/C=C\CCCCC)O[Si](C)(C)OCCCCCCN1CCN(CCCCCCO[Si](C)(C)OC(CCCCCCC/C=C\C/C=C\CCCCC)OCCCCCCCC/C=C\C/C=C\CCCCC)CC1 (stereo not shown) [Example 70, 1,4-bis((20Z,23Z)-10-((8Z,11Z)-heptadeca-8,11-dien-1-yl)-8,8-dimethyl-7,9,11-trioxa-8-silanonacosa-20,23-dien-1-yl)piperazine] |  |  |  |  |  |  |  |  | 81 | 99 |  | 
6 | CCCCCCCC/C=C\CCCCCCCC(OCC(CCCCCCCC)SCCCCCCCCCC)O[Si](C)(C)OCCCCCCN(CCO)CCO (stereo not shown) [Example 73, (Z)-13-(heptadec-8-en-1-yl)-3-(2-hydroxyethyl)-11,11-dimethyl-16-octyl-10,12,14-trioxa-17-thia-3-aza-11-silaheptacosan-1-ol] |  |  |  |  |  |  |  |  | 87 | 107 |  | 
7 | CCCCC/C=C\C/C=C\CCCCCCCCO[Si](C)(C)OC(CCCCCCC/C=C\CCCCCCCC)OCCCN(C)C (stereo not shown) [Example 81, (17Z,20Z)-5-((Z)-heptadec-8-en-1-yl)-N,N,7,7-tetramethyl-4,6,8-trioxa-7-silahexacosa-17,20-dien-1-amine] |  |  |  |  |  |  |  |  |  | 100 |  | EE (%) [1]: 86%
8 | CCCCC/C=C\C/C=C\CCCCCCCCOC(CCCCCCC/C=C\C/C=C\CCCCC)O[Si](C)(C)O[Si](C)(C)CCCCCCN(CCO)CCO (stereo not shown) [Example 82, (24Z,27Z)-14-((8Z,11Z)-heptadeca-8,11-dien-1-yl)-3-(2-hydroxyethyl)-10,10,12,12-tetramethyl-11,13,15-trioxa-3-aza-10,12-disilatritriaconta-24,27-dien-1-ol] |  |  |  |  |  |  |  |  | 80 | 97 |  | 

Source: patent US20260109721A1, “IONIZABLE CATIONIC LIPIDS INCORPORATING SILICON: SYNTHESIS AND LNP FORMULATION” (priority 2023, published 2026)
